Like-named read-outs stand apart in the source and are kept apart here.
T1: MtBgl3a (Thermothelomyces thermophilus, UniProt G2QDN2)
T1 construct: gene MYCTH_66804
T1 sequence (G2QDN2 18-733): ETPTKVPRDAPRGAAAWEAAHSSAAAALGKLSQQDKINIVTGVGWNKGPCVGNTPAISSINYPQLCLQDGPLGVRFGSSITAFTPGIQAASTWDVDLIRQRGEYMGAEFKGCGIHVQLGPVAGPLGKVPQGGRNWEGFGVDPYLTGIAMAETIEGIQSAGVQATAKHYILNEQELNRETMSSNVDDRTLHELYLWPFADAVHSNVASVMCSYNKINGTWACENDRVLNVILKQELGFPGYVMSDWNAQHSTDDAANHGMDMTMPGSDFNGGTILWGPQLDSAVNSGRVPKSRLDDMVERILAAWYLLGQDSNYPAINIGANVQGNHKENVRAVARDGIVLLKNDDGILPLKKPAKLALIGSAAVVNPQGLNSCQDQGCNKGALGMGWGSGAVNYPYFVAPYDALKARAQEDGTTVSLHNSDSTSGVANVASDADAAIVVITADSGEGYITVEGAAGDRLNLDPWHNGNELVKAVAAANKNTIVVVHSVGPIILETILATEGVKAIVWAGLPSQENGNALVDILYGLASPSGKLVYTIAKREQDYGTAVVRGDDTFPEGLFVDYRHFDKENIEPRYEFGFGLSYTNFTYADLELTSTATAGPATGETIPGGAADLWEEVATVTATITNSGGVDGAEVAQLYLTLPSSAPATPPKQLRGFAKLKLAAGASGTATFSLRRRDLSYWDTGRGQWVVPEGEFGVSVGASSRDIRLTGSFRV

B1: MtBgl3a (Thermothelomyces thermophilus ATCC 42464) (protein)
chain: T1 sequence (G2QDN2 18-733)

Legend:
MtBgl3a = molecular target: T1, MtBgl3a; experiment: p-nitrophenol release, absorbance […] nm; Michaelis-Menten fit (GraFit); type: biochemical
purified protein = substrate: O=[N+]([O-])c1ccc(O[C@@H]2O[C@H](CO)[C@@H](O)[C@H](O)[C@H]2O)cc1; experiment: purified protein; conditions: 100 mM citrate-phosphate pH 5.0, 40 °C
[1] = competitive, substrate p-β-NPG, pH 5.0 citrate-phosphate

| Molecule | Ki (MtBgl3a; [1]) [µM] | further results |
| --- | --- | --- |
| OC1OC[C@@H](O)[C@H](O)[C@H]1O (stereo partly drawn) [D-xylose] | 30 ± 5 | – |
| O=C(O)[C@H](O)[C@@H](O)[C@H](O)[C@H](O)CO [D-gluconic acid] | – | Ki (MtBgl3a): 22 ± 2 µM |
| OC[C@H]1OC(O)[C@H](O)[C@@H](O)[C@@H]1O (stereo partly drawn) [D-glucose] | 282 ± 100 | – |
| B1 | – | Km (purified protein): 390 ± 120 µM |

From paper PMC3628895, “Cloning, expression and characterization of an ethanol tolerant GH3 β-glucosidase from Myceliophthora thermophila” (PeerJ, 2013)
